Assay results from ChEMBL document CHEMBL1201861, “Genomics of Drug Sensitity in Cancer screening data, Wellcome Trust Sanger Institute”.

How the values were obtained:
Assay in all cases: cells
8305C = type: functional, cell-based, Homo sapiens; settings: Homo sapiens, 8305C
Description: SANGER: Inhibition of human 8305C cell growth in a cell viability assay.

Calu-3 = type: functional, cell-based, Homo sapiens; settings: Homo sapiens, Calu-3;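 note: growth inhibition of human Calu-3 cells, determined with a cell viability assay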
Description: SANGER: Inhibition of human Calu-3 cell growth in a cell viability assay.

KU812 cell line = type: functional, cell-based; settings: Homo sapiens;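 note: growth inhibition of KU812 cells, read out with a cell viability assay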
Description: SANGER: Inhibition of human KU812 cell growth in a cell viability assay.

BHT-101 = type: functional, cell-based, Homo sapiens; settings: Homo sapiens, BHT-101
Description: SANGER: Inhibition of human BHT-101 cell growth in a cell viability assay.

NCI-H1792 = type: functional, cell-based, Homo sapiens; settings: Homo sapiens, NCI-H1792;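 note: growth inhibition of human NCI-H1792 cells, read out as cell viability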
Description: SANGER: Inhibition of human NCI-H1792 cell growth in a cell viability assay.

MZ1-PC = type: functional, cell-based, Homo sapiens; settings: Homo sapiens, MZ1-PC;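 note: cell viability assay measuring growth inhibition of human MZ1-PC cells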
Description: SANGER: Inhibition of human MZ1-PC cell growth in a cell viability assay.

CAL-54 = type: functional, cell-based, Homo sapiens; settings: Homo sapiens, CAL-54;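 note: growth inhibition of CAL-54 cells, read out by a viability measurement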
Description: SANGER: Inhibition of human CAL-54 cell growth in a cell viability assay.

MC-IXC = type: functional, cell-based, Homo sapiens; settings: Homo sapiens, MC-IXC;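 note: growth inhibition of MC-IXC cells, read out with a cell viability assay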
Description: SANGER: Inhibition of human MC-IXC cell growth in a cell viability assay.

MPP-89 = type: functional, cell-based, Homo sapiens; settings: Homo sapiens, MPP-89;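 note: growth inhibition of human MPP-89 cells, read out with a cell viability assay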
Description: SANGER: Inhibition of human MPP-89 cell growth in a cell viability assay.

A 172 = type: functional, cell-based, Homo sapiens; settings: Homo sapiens, A 172;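 note: growth inhibition of A172 cells, measured with a cell viability readout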
Description: SANGER: Inhibition of human A172 cell growth in a cell viability assay.

OE33 = type: functional, cell-based, Homo sapiens; settings: Homo sapiens, OE33;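 note: growth inhibition of human OE33 cells, measured by a cell viability assay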
Description: SANGER: Inhibition of human OE33 cell growth in a cell viability assay.

TCC-SUP = type: functional, cell-based, Homo sapiens; settings: Homo sapiens, TCC-SUP;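 note: growth inhibition of TCC-SUP cells, read out with a cell viability assay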
Description: SANGER: Inhibition of human TCCSUP cell growth in a cell viability assay.

KE-37 = type: functional, cell-based; settings: Homo sapiens;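 note: growth inhibition of KE-37 cells, read out with a cell viability assay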
Description: SANGER: Inhibition of human KE-37 cell growth in a cell viability assay.

TE-1 = type: functional, cell-based, Homo sapiens; settings: Homo sapiens, TE-1;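 note: growth inhibition of the human TE-1 cell line, read out with a cell viability assay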
Description: SANGER: Inhibition of human TE-1 cell growth in a cell viability assay.

M059J = type: functional, cell-based, Homo sapiens; settings: Homo sapiens, M059J;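 note: growth inhibition of M059J cells, read out with a cell viability assay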
Description: SANGER: Inhibition of human M059J cell growth in a cell viability assay.

PC-14 = type: functional, cell-based, Homo sapiens; settings: Homo sapiens, PC-14;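 note: cell viability assay measuring inhibition of PC-14 cell growth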
Description: SANGER: Inhibition of human PC-14 cell growth in a cell viability assay.

COLO-829 = type: functional, cell-based, Homo sapiens; settings: Homo sapiens, COLO-829
Description: SANGER: Inhibition of human COLO-829 cell growth in a cell viability assay.

NCI-H650 = type: functional, cell-based, Homo sapiens; settings: Homo sapiens, NCI-H650;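 note: growth inhibition of NCI-H650 cells, read out by a viability assay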
Description: SANGER: Inhibition of human NCI-H650 cell growth in a cell viability assay.

KMOE-2 = type: functional, cell-based; settings: Homo sapiens;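 note: growth inhibition of human KMOE-2 cells, read out with a cell viability assay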
Description: SANGER: Inhibition of human KMOE-2 cell growth in a cell viability assay.

CAL-39 = type: functional, cell-based, Homo sapiens; settings: Homo sapiens, CAL-39;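 note: cell viability assay measuring growth inhibition of CAL-39 cells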
Description: SANGER: Inhibition of human CAL-39 cell growth in a cell viability assay.

TGW = type: functional, cell-based; settings: Homo sapiens;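 note: growth inhibition of human TGW cells, read out with a cell viability assay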
Description: SANGER: Inhibition of human TGW cell growth in a cell viability assay.

A2058 = type: functional, cell-based; settings: Homo sapiens;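 note: reduction of A2058 cell growth, read out with a viability assay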
Description: SANGER: Inhibition of human A2058 cell growth in a cell viability assay.

GR-ST = type: functional, cell-based; settings: Homo sapiens
Description: SANGER: Inhibition of human GR-ST cell growth in a cell viability assay.

DBTRG-05MG = type: functional, cell-based, Homo sapiens; settings: Homo sapiens, DBTRG-05MG;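 note: cell viability assay measuring growth inhibition of human DBTRG-05MG cells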
Description: SANGER: Inhibition of human DBTRG-05MG cell growth in a cell viability assay.

MLMA = type: functional, cell-based, Homo sapiens; settings: Homo sapiens, MLMA;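 note: growth inhibition of MLMA cells (human), determined through a cell viability readout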
Description: SANGER: Inhibition of human MLMA cell growth in a cell viability assay.

CTV-1 = type: functional, cell-based; settings: Homo sapiens;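 note: growth inhibition of the cell line, read out with a cell viability assay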
Description: SANGER: Inhibition of human CTV-1 cell growth in a cell viability assay.

HT-29 = type: functional, cell-based, Homo sapiens; settings: Homo sapiens, HT-29;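 note: growth inhibition of human HT-29 cells, read out by a cell viability assay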
Description: SANGER: Inhibition of human HT-29 cell growth in a cell viability assay.

KARPAS-45 = type: functional, cell-based; settings: Homo sapiens;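 note: inhibition of cell line growth, read out through a viability assay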
Description: SANGER: Inhibition of human KARPAS-45 cell growth in a cell viability assay.

MHH-NB-11 = type: functional, cell-based, Homo sapiens; settings: Homo sapiens, MHH-NB-11;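 note: growth inhibition of human MHH-NB-11 cells, read out by a cell viability assay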
Description: SANGER: Inhibition of human MHH-NB-11 cell growth in a cell viability assay.

SN12C = type: functional, cell-based, Homo sapiens; settings: Homo sapiens, SN12C;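 note: growth inhibition of human SN12C cells, measured by a cell viability assay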
Description: SANGER: Inhibition of human SN12C cell growth in a cell viability assay.

SK-PN-DW = type: functional, cell-based; settings: Homo sapiens;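 note: growth inhibition measured with a viability assay on these cells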
Description: SANGER: Inhibition of human SK-PN-DW cell growth in a cell viability assay.

HCE-4 = type: functional, cell-based, Homo sapiens; settings: Homo sapiens, HCE-4;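 note: cell viability assay measuring inhibition of growth in the human HCE-4 cell line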
Description: SANGER: Inhibition of human HCE-4 cell growth in a cell viability assay.

NH-12 = type: functional, cell-based, Homo sapiens; settings: Homo sapiens, NH-12;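 note: growth inhibition of NH-12 cells, read out with a cell viability assay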
Description: SANGER: Inhibition of human NH-12 cell growth in a cell viability assay.

LN-405 = type: functional, cell-based, Homo sapiens; settings: Homo sapiens, LN-405
Description: SANGER: Inhibition of human LN-405 cell growth in a cell viability assay.

NMC-G1 = type: functional, cell-based, Homo sapiens; settings: Homo sapiens, NMC-G1;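 note: growth inhibition of the NMC-G1 cell line, measured with a cell viability read-out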
Description: SANGER: Inhibition of human NMC-G1 cell growth in a cell viability assay.

HTC-C3 = type: functional, cell-based, Homo sapiens; settings: Homo sapiens, HTC-C3;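 note: inhibition of cell growth, read out with a cell viability assay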
Description: SANGER: Inhibition of human HTC-C3 cell growth in a cell viability assay.

NCI-H2452 = type: functional, cell-based, Homo sapiens; settings: Homo sapiens, NCI-H2452;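 note: growth inhibition of NCI-H2452 cells, read out with a cell viability assay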
Description: SANGER: Inhibition of human NCI-H2452 cell growth in a cell viability assay.

TK-10 = type: functional, cell-based, Homo sapiens; settings: Homo sapiens, TK-10;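 note: growth inhibition of TK-10 cells, read out in a cell viability assay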
Description: SANGER: Inhibition of human TK10 cell growth in a cell viability assay.

Ca-Ski = type: functional, cell-based; settings: Homo sapiens;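 note: cell viability assay measuring inhibition of Ca-Ski cell growth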
Description: SANGER: Inhibition of human Ca-Ski cell growth in a cell viability assay.

K562 = type: functional, cell-based; settings: Homo sapiens
Description: SANGER: Inhibition of human K-562 cell growth in a cell viability assay.

647-V = type: functional, cell-based, Homo sapiens; settings: Homo sapiens, 647-V;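 note: growth inhibition of 647-V cells, read out with a cell viability assay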
Description: SANGER: Inhibition of human 647-V cell growth in a cell viability assay.

DoTc2-4510 = type: functional, cell-based, Homo sapiens; settings: Homo sapiens, DoTc2-4510
SNU-C2B = type: functional, cell-based, Homo sapiens; settings: Homo sapiens, SNU-C2B;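 note: cell viability readout used to measure compound-driven suppression of SNU-C2B cell proliferation, IC50 marking half-maximal growth inhibition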
Description: SANGER: Inhibition of human SNU-C2B cell growth in a cell viability assay.

SK-LU-1 = type: functional, cell-based, Homo sapiens; settings: Homo sapiens, SK-LU-1;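 note: cell viability assay measuring growth inhibition of human SK-LU-1 cells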
Description: SANGER: Inhibition of human SK-LU-1 cell growth in a cell viability assay.

SW837 = type: functional, cell-based, Homo sapiens; settings: Homo sapiens, SW837;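 note: growth inhibition of SW837 cells, determined with a cell viability assay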
Description: SANGER: Inhibition of human SW837 cell growth in a cell viability assay.

8505C = type: functional, cell-based, Homo sapiens; settings: Homo sapiens, 8505C
Description: SANGER: Inhibition of human 8505C cell growth in a cell viability assay.

NCI-H23 = type: functional, cell-based, Homo sapiens; settings: Homo sapiens, NCI-H23;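 note: cell viability assay measuring growth inhibition of NCI-H23 cells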
Description: SANGER: Inhibition of human NCI-H23 cell growth in a cell viability assay.

SW13 = type: functional, cell-based, Homo sapiens; settings: Homo sapiens, SW13;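 note: IC50 is inhibition of SW13 cell growth, read out with a cell viability assay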
Description: SANGER: Inhibition of human SW13 cell growth in a cell viability assay.

T98G = type: functional, cell-based, Homo sapiens; settings: Homo sapiens, T98G;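 note: growth inhibition of T98G cells, read out by a cell viability assay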
Description: SANGER: Inhibition of human T98G cell growth in a cell viability assay.

LB2241-RCC = type: functional, cell-based, Homo sapiens; settings: Homo sapiens, LB2241-RCC;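 note: cell viability assay measuring how strongly the cultured human renal carcinoma line is prevented from growing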
Description: SANGER: Inhibition of human LB2241-RCC cell growth in a cell viability assay.

SF-295 = type: functional, cell-based, Homo sapiens; settings: Homo sapiens, SF-295;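 note: growth inhibition of SF-295 cells, read out with a cell viability assay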
Description: SANGER: Inhibition of human SF295 cell growth in a cell viability assay.

SW684 = type: functional, cell-based, Homo sapiens; settings: Homo sapiens, SW684;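 note: growth inhibition of human SW684 cells, measured by a cell viability assay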
Description: SANGER: Inhibition of human SW684 cell growth in a cell viability assay.

Work on `Cn1cncc1[C@@](N)(c1ccc(Cl)cc1)c1ccc2c(c1)c(-c1cccc(Cl)c1)cc(=O)n2C` [TIPIFARNIB] yielded an IC50 (8305C) of 976 nM, an IC50 (Calu-3) of 4.43 µM and an IC50 (KU812 cell line) of 97.1 nM. It also gave an IC50 (BHT-101) of 3.09 µM, an IC50 (NCI-H1792) greater than 16 µM and an IC50 (MZ1-PC) of 2820 nM. It also gave an IC50 (CAL-54) of 11.9 µM, an IC50 (MC-IXC) of 2760 nM and an IC50 (MPP-89) greater than 16 µM. It also gave an IC50 (A 172) of 10.1 µM, an IC50 (OE33) of 12.6 µM and an IC50 (TCC-SUP) of 5.8 µM. The IC50 (KE-37) was 2320 nM, the IC50 (TE-1) was 2.61 µM and the IC50 (M059J) was greater than 16 µM. It also gave an IC50 (PC-14) greater than 16 µM, an IC50 (COLO-829) of 12.6 µM and an IC50 (NCI-H650) of 773 nM. It also gave an IC50 (KMOE-2) of 5.18 µM, an IC50 (CAL-39) of 962 nM and an IC50 (TGW) greater than 0.016 mM. For the same compound, the IC50 (A2058) was 11.8 µM, the IC50 (GR-ST) was 2870 nM and the IC50 (DBTRG-05MG) was 14.4 µM. It also gave an IC50 (MLMA) greater than 16 µM, an IC50 (CTV-1) of 4.58 µM and an IC50 (HT-29) of 547 nM. For the same compound, the IC50 (KARPAS-45) was 12.9 µM, the IC50 (MHH-NB-11) was greater than 16 µM and the IC50 (SN12C) was 13.2 µM. The IC50 (SK-PN-DW) was 15.5 µM, the IC50 (HCE-4) was 3.04 µM and the IC50 (NH-12) was 5.59 µM. It also gave an IC50 (LN-405) greater than 16 µM, an IC50 (NMC-G1) of 425 nM and an IC50 (HTC-C3) of 4.83 µM. It also gave an IC50 (NCI-H2452) greater than 16 µM, an IC50 (TK-10) of 5.68 µM and an IC50 (Ca-Ski) of 9.17 µM. It also gave an IC50 (K562) of 4.82 µM, an IC50 (647-V) of 2300 nM and an IC50 (DoTc2-4510) of 1680 nM. For the same compound, the IC50 (SNU-C2B) was 10.4 µM, the IC50 (SK-LU-1) was 3.55 µM and the IC50 (SW837) was 9.89 µM. It also gave an IC50 (8505C) of 431 nM, an IC50 (NCI-H23) greater than 16 µM and an IC50 (SW13) of 3.6 µM. It also gave an IC50 (T98G) of 11.8 µM, an IC50 (LB2241-RCC) of 6.16 µM and an IC50 (SF-295; read-out: IC50) of 2160 nM. For the same compound, the IC50 (SW684) was greater than 0.016 mM.
With `COC(=O)CNC(=O)C(=O)OC` the IC50 (8305C) was 603000 nM, the IC50 (Calu-3) was 65.7 µM and the IC50 (KU812 cell line) was 28500 nM. It also gave an IC50 (BHT-101) greater than 4000 µM, an IC50 (NCI-H1792) of 706 µM and an IC50 (MZ1-PC) of 46000 nM. It also gave an IC50 (CAL-54) of 1250 µM, an IC50 (MC-IXC) of 96700 nM and an IC50 (MPP-89) of 1280 µM. The IC50 (A 172) was 566 µM, the IC50 (OE33) was 421 µM and the IC50 (TCC-SUP) was 432 µM. It also gave an IC50 (KE-37) of 43300 nM, an IC50 (TE-1) of 1010 µM and an IC50 (M059J) of 541 µM. It also gave an IC50 (PC-14) greater than 4000 µM, an IC50 (COLO-829) of 111 µM and an IC50 (NCI-H650) of 269000 nM. It also gave an IC50 (KMOE-2) of 305 µM, an IC50 (CAL-39) of 19300 nM and an IC50 (TGW) greater than 4 mM. For the same compound, the IC50 (A2058) was 166 µM, the IC50 (GR-ST) was 213000 nM and the IC50 (DBTRG-05MG) was 311 µM. For the same compound, the IC50 (MLMA) was 46.3 µM, the IC50 (CTV-1) was 468 µM and the IC50 (HT-29) was 846000 nM. The IC50 (KARPAS-45) was 484 µM, the IC50 (MHH-NB-11) was greater than 4000 µM and the IC50 (SN12C) was 257 µM. The IC50 (SK-PN-DW) was 215 µM, the IC50 (HCE-4) was 546 µM and the IC50 (NH-12) was greater than 4000 µM. The IC50 (LN-405) was 1610 µM, the IC50 (NMC-G1) was 466000 nM and the IC50 (HTC-C3) was 175 µM. For the same compound, the IC50 (NCI-H2452) was 966 µM, the IC50 (TK-10) was 355 µM and the IC50 (Ca-Ski) was 157 µM. It also gave an IC50 (K562) of 2030 µM, an IC50 (647-V) of 93500 nM and an IC50 (DoTc2-4510) of 153000 nM. It also gave an IC50 (SNU-C2B) greater than 4000 µM, an IC50 (SK-LU-1) of 66 µM and an IC50 (SW837) of 858 µM. For the same compound, the IC50 (8505C) was 678000 nM, the IC50 (NCI-H23) was 2950 µM and the IC50 (SW13) was 639 µM. It also gave an IC50 (T98G) of 666 µM, an IC50 (LB2241-RCC) of 537 µM and an IC50 (SF-295; read-out: IC50) of 344000 nM. For the same compound, the IC50 (SW684) was 2.47 mM.
With `CC(=O)O[C@@]12CO[C@@H]1C[C@H](O)[C@@]1(C)C(=O)[C@H](O)C3=C(C)[C@@H](OC(=O)[C@H](O)[C@@H](NC(=O)OC(C)(C)C)c4ccccc4)C[C@@](O)([C@@H](OC(=O)c4ccccc4)[C@H]21)C3(C)C` [DOCETAXEL] the IC50 (8305C) was 5.76 nM, the IC50 (Calu-3) was greater than 0.01 µM and the IC50 (KU812 cell line) was greater than 10 nM. For the same compound, the IC50 (BHT-101) was 0.0098 µM, the IC50 (NCI-H1792) was 0.00104 µM and the IC50 (MZ1-PC) was 1.18 nM. For the same compound, the IC50 (CAL-54) was greater than 0.01 µM, the IC50 (MC-IXC) was 0.479 nM and the IC50 (MPP-89) was 0.00567 µM. For the same compound, the IC50 (A 172) was 0.00163 µM, the IC50 (OE33) was greater than 0.01 µM and the IC50 (TCC-SUP) was greater than 0.01 µM. For the same compound, the IC50 (KE-37) was greater than 10 nM, the IC50 (TE-1) was 0.00216 µM and the IC50 (M059J) was 0.00198 µM. The IC50 (PC-14) was 0.00209 µM, the IC50 (COLO-829) was 0.00725 µM and the IC50 (NCI-H650) was 2.25 nM. The IC50 (KMOE-2) was greater than 0.01 µM, the IC50 (CAL-39) was 1.63 nM and the IC50 (A2058) was 0.000544 µM. For the same compound, the IC50 (GR-ST) was greater than 10 nM, the IC50 (DBTRG-05MG) was 0.00917 µM and the IC50 (MLMA) was 0.00355 µM. The IC50 (CTV-1) was 0.00337 µM, the IC50 (HT-29) was 2.8 nM and the IC50 (KARPAS-45) was 0.00652 µM. For the same compound, the IC50 (MHH-NB-11) was greater than 0.01 µM, the IC50 (SN12C) was 0.0055 µM and the IC50 (SK-PN-DW) was 0.00194 µM. It also gave an IC50 (HCE-4) of 0.00247 µM, an IC50 (NH-12) greater than 0.01 µM and an IC50 (LN-405) of 0.00482 µM. For the same compound, the IC50 (NMC-G1) was 0.517 nM, the IC50 (HTC-C3) was 0.00285 µM and the IC50 (NCI-H2452) was 0.00216 µM. For the same compound, the IC50 (TK-10) was 0.00977 µM, the IC50 (Ca-Ski) was 0.000728 µM and the IC50 (K562) was greater than 0.01 µM. For the same compound, the IC50 (647-V) was 1.84 nM, the IC50 (DoTc2-4510) was greater than 10 nM and the IC50 (SNU-C2B) was greater than 0.01 µM. For the same compound, the IC50 (SK-LU-1) was greater than 0.01 µM, the IC50 (SW837) was greater than 0.01 µM and the IC50 (8505C) was 0.854 nM. The IC50 (NCI-H23) was 0.00364 µM, the IC50 (SW13) was 0.00169 µM and the IC50 (T98G) was 0.00117 µM. The IC50 (LB2241-RCC) was 0.00531 µM, the IC50 (SF-295) was greater than 10 nM and the IC50 (SW684) was greater than 1e-05 mM.
